Source: the supplement of paper PMC10307832

How the values were obtained:
Assay in all cases: relative viability (nuclei count vs DMSO), 5 days (fraction); higher = more cells survive
COR-L23 = system: COR-L23
Outline: (§1)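 For relative viability, nuclei counts in treated wells were divided by those in vehicle wells. Lung cancer cell lines had been pin-tool dosed in 1536-well plates the day after seeding and cultured for 5 days, then fixed and stained in one step (final 0.05% Triton X-100, 1% formaldehyde, 1 ug/ml Hoechst) and imaged at 4×. Doses were one drug alone or a fixed anchor-drug dose plus five library-drug doses (not always all listed) in √10 steps, and values are duplicate-plate medians.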

ChaGo-K-1 = system: ChaGo-K-1
Outline: as §1

EPLC-272H = system: EPLC-272H
Outline: as §1

H3255 = system: H3255
Outline: as §1

HARA = system: HARA
Outline: as §1

HCC-78 = system: HCC-78
Outline: as §1

HOP-62 = system: HOP-62
Outline: as §1

LCLC-97TM1 = system: LCLC-97TM1
Outline: as §1

LXF-289 = system: LXF-289
Outline: as §1

NCI-H1437 = system: NCI-H1437
Outline: as §1

NCI-H1650 = system: NCI-H1650
Outline: as §1

NCI-H1666 = system: NCI-H1666
Outline: as §1

NCI-H2085 = system: NCI-H2085
Outline: as §1

NCI-H2087 = system: NCI-H2087
Outline: as §1

NCI-H2126 = system: NCI-H2126
Outline: as §1

NCI-H3122 = system: NCI-H3122
Outline: as §1

NCI-H441 = system: NCI-H441
Outline: as §1

NCI-H596 = system: NCI-H596
Outline: as §1

NCI-H661 = system: NCI-H661
Outline: as §1

PC-14 = system: PC-14
Outline: as §1

Cc1cn(-c2cc(NC(=O)c3ccc(C)c(Nc4nccc(-c5cccnc5)n4)c3)cc(C(F)(F)F)c2)cn1 [Nilotinib] + CC(C)C[C@H](NC(=O)[C@H](Cc1ccccc1)NC(=O)c1cnccn1)B(O)O [Bortezomib] (partner 0.002 µM)
relative viability (COR-L23; first compound 0.001 µM): 0.726
relative viability (COR-L23; first compound 0.003162 µM): 1.24
relative viability (COR-L23; first compound 0.01 µM): 1.22
relative viability (COR-L23; first compound 0.03162 µM): 0.858
relative viability (COR-L23; first compound 0.1 µM): 0.907
relative viability (ChaGo-K-1; first compound 0.001 µM): 1.44
relative viability (ChaGo-K-1; first compound 0.003162 µM): 1.05
relative viability (ChaGo-K-1; first compound 0.01 µM): 1.14
relative viability (ChaGo-K-1; first compound 0.03162 µM): 0.639
relative viability (ChaGo-K-1; first compound 0.1 µM): 0.898
relative viability (EPLC-272H; first compound 0.001 µM): 1.06
relative viability (EPLC-272H; first compound 0.003162 µM): 1.21
relative viability (EPLC-272H; first compound 0.01 µM): 0.863
relative viability (EPLC-272H; first compound 0.03162 µM): 0.72
relative viability (EPLC-272H; first compound 0.1 µM): 0.429
relative viability (H3255; first compound 0.001 µM): 0.917
relative viability (H3255; first compound 0.003162 µM): 0.656
relative viability (H3255; first compound 0.01 µM): 0.986
relative viability (H3255; first compound 0.03162 µM): 0.787
relative viability (H3255; first compound 0.1 µM): 0.558
relative viability (HARA; first compound 0.001 µM): 1.17
relative viability (HARA; first compound 0.003162 µM): 1.25
relative viability (HARA; first compound 0.01 µM): 1.11
relative viability (HARA; first compound 0.03162 µM): 1.15
relative viability (HARA; first compound 0.1 µM): 0.859
relative viability (HCC-78; first compound 0.001 µM): 0.433
relative viability (HCC-78; first compound 0.003162 µM): 0.514
relative viability (HCC-78; first compound 0.01 µM): 0.654
relative viability (HCC-78; first compound 0.03162 µM): 0.55
relative viability (HCC-78; first compound 0.1 µM): 0.518
relative viability (HOP-62; first compound 0.001 µM): 0.706
relative viability (HOP-62; first compound 0.003162 µM): 0.861
relative viability (HOP-62; first compound 0.01 µM): 0.28
relative viability (HOP-62; first compound 0.03162 µM): 0.576
relative viability (LCLC-97TM1; first compound 0.001 µM): 0.454
relative viability (LCLC-97TM1; first compound 0.003162 µM): 0.158
relative viability (LCLC-97TM1; first compound 0.01 µM): 0.946
relative viability (LCLC-97TM1; first compound 0.03162 µM): 0.295
relative viability (LCLC-97TM1; first compound 0.1 µM): 0.511
relative viability (LXF-289; first compound 0.001 µM): 0.977
relative viability (LXF-289; first compound 0.003162 µM): 1.22
relative viability (LXF-289; first compound 0.01 µM): 1.11
relative viability (LXF-289; first compound 0.03162 µM): 0.977
relative viability (LXF-289; first compound 0.1 µM): 0.692
relative viability (NCI-H1437; first compound 0.001 µM): 0.485
relative viability (NCI-H1437; first compound 0.003162 µM): 0.505
relative viability (NCI-H1437; first compound 0.01 µM): 0.651
relative viability (NCI-H1437; first compound 0.03162 µM): 0.367
relative viability (NCI-H1437; first compound 0.1 µM): 0.161
relative viability (NCI-H1650; first compound 0.001 µM): 0.2
relative viability (NCI-H1650; first compound 0.003162 µM): 0.195
relative viability (NCI-H1650; first compound 0.01 µM): 0.18
relative viability (NCI-H1650; first compound 0.03162 µM): 0.196
relative viability (NCI-H1650; first compound 0.1 µM): 0.197
relative viability (NCI-H1666; first compound 0.001 µM): 0.774
relative viability (NCI-H1666; first compound 0.01 µM): 0.649
relative viability (NCI-H1666; first compound 0.03162 µM): 0.985
relative viability (NCI-H1666; first compound 0.1 µM): 0.829
relative viability (NCI-H2085; first compound 0.001 µM): 1.11
relative viability (NCI-H2085; first compound 0.003162 µM): 1.11
relative viability (NCI-H2085; first compound 0.01 µM): 1.27
relative viability (NCI-H2085; first compound 0.03162 µM): 0.816
relative viability (NCI-H2085; first compound 0.1 µM): 0.725
relative viability (NCI-H2087; first compound 0.001 µM): 0.693
relative viability (NCI-H2087; first compound 0.003162 µM): 1.03
relative viability (NCI-H2087; first compound 0.01 µM): 0.762
relative viability (NCI-H2087; first compound 0.03162 µM): 0.68
relative viability (NCI-H2087; first compound 0.1 µM): 0.296
relative viability (NCI-H2126; first compound 0.001 µM): 1.12
relative viability (NCI-H2126; first compound 0.003162 µM): 1.18
relative viability (NCI-H2126; first compound 0.01 µM): 1.08
relative viability (NCI-H2126; first compound 0.03162 µM): 1.08
relative viability (NCI-H2126; first compound 0.1 µM): 0.624
relative viability (NCI-H3122; first compound 0.003162 µM): 1.05
relative viability (NCI-H3122; first compound 0.03162 µM): 1.03
relative viability (NCI-H3122; first compound 0.1 µM): 0.962
relative viability (NCI-H441; first compound 0.001 µM): 0.33
relative viability (NCI-H441; first compound 0.003162 µM): 0.735
relative viability (NCI-H441; first compound 0.01 µM): 0.492
relative viability (NCI-H441; first compound 0.1 µM): 0.219
relative viability (NCI-H596; first compound 0.001 µM): 1.16
relative viability (NCI-H596; first compound 0.003162 µM): 1.03
relative viability (NCI-H596; first compound 0.01 µM): 1.18
relative viability (NCI-H596; first compound 0.03162 µM): 1.21
relative viability (NCI-H596; first compound 0.1 µM): 0.96
relative viability (NCI-H661; first compound 0.001 µM): 0.752
relative viability (NCI-H661; first compound 0.003162 µM): 0.831
relative viability (NCI-H661; first compound 0.01 µM): 1.02
relative viability (NCI-H661; first compound 0.03162 µM): 0.642
relative viability (NCI-H661; first compound 0.1 µM): 0.815
relative viability (PC-14; first compound 0.003162 µM): 1.05
relative viability (PC-14; first compound 0.01 µM): 1.02
relative viability (PC-14; first compound 0.03162 µM): 0.797
relative viability (PC-14; first compound 0.1 µM): 0.867

CN1CCN(CCOc2cc(OC3CCOCC3)c3c(Nc4c(Cl)ccc5c4OCO5)ncnc3c2)CC1 [Saracatinib] + CC(C)C[C@H](NC(=O)[C@H](Cc1ccccc1)NC(=O)c1cnccn1)B(O)O [Bortezomib] (partner 0.002 µM)
relative viability (COR-L23; first compound 0.02 µM): 0.98
relative viability (COR-L23; first compound 0.2 µM): 0.723
relative viability (COR-L23; first compound 0.6325 µM): 1.09
relative viability (COR-L23; first compound 2 µM): 1.05
relative viability (ChaGo-K-1; first compound 0.02 µM): 1.1
relative viability (ChaGo-K-1; first compound 0.2 µM): 0.866
relative viability (ChaGo-K-1; first compound 0.6325 µM): 1.05
relative viability (ChaGo-K-1; first compound 2 µM): 0.79
relative viability (EPLC-272H; first compound 0.02 µM): 0.812
relative viability (EPLC-272H; first compound 0.2 µM): 0.786
relative viability (EPLC-272H; first compound 0.6325 µM): 1.2
relative viability (EPLC-272H; first compound 2 µM): 0.932
relative viability (H3255; first compound 0.02 µM): 0.864
relative viability (H3255; first compound 0.2 µM): 0.892
relative viability (H3255; first compound 0.6325 µM): 0.812
relative viability (H3255; first compound 2 µM): 0.272
relative viability (HARA; first compound 0.02 µM): 1.12
relative viability (HARA; first compound 0.6325 µM): 1.08
relative viability (HARA; first compound 2 µM): 0.602
relative viability (HCC-78; first compound 0.02 µM): 0.505
relative viability (HCC-78; first compound 0.2 µM): 0.513
relative viability (HCC-78; first compound 0.6325 µM): 0.583
relative viability (HCC-78; first compound 2 µM): 0.357
relative viability (HOP-62; first compound 0.02 µM): 0.715
relative viability (HOP-62; first compound 0.2 µM): 0.718
relative viability (HOP-62; first compound 0.6325 µM): 0.692
relative viability (HOP-62; first compound 2 µM): 1.06
relative viability (LCLC-97TM1; first compound 0.02 µM): 0.786
relative viability (LCLC-97TM1; first compound 0.6325 µM): 0.995
relative viability (LCLC-97TM1; first compound 2 µM): 0.523
relative viability (LXF-289; first compound 0.02 µM): 0.937
relative viability (LXF-289; first compound 0.2 µM): 0.959
relative viability (LXF-289; first compound 0.6325 µM): 0.966
relative viability (LXF-289; first compound 2 µM): 0.987
relative viability (NCI-H1437; first compound 0.02 µM): 0.502
relative viability (NCI-H1437; first compound 0.2 µM): 0.505
relative viability (NCI-H1437; first compound 0.6325 µM): 0.437
relative viability (NCI-H1437; first compound 2 µM): 0.453
relative viability (NCI-H1650; first compound 0.02 µM): 0.179
relative viability (NCI-H1650; first compound 0.2 µM): 0.192
relative viability (NCI-H1650; first compound 0.6325 µM): 0.24
relative viability (NCI-H1650; first compound 2 µM): 0.206
relative viability (NCI-H1666; first compound 0.02 µM): 0.898
relative viability (NCI-H1666; first compound 0.2 µM): 0.978
relative viability (NCI-H1666; first compound 0.6325 µM): 1.07
relative viability (NCI-H1666; first compound 2 µM): 1.06
relative viability (NCI-H2085; first compound 0.02 µM): 1.07
relative viability (NCI-H2085; first compound 0.2 µM): 0.91
relative viability (NCI-H2085; first compound 0.6325 µM): 1.13
relative viability (NCI-H2085; first compound 2 µM): 1.11
relative viability (NCI-H2087; first compound 0.02 µM): 0.87
relative viability (NCI-H2087; first compound 0.2 µM): 0.608
relative viability (NCI-H2087; first compound 0.6325 µM): 0.856
relative viability (NCI-H2087; first compound 2 µM): 0.711
relative viability (NCI-H2126; first compound 0.02 µM): 1.09
relative viability (NCI-H2126; first compound 0.2 µM): 1.02
relative viability (NCI-H2126; first compound 0.6325 µM): 1.11
relative viability (NCI-H2126; first compound 2 µM): 0.996
relative viability (NCI-H3122; first compound 0.02 µM): 1.05
relative viability (NCI-H3122; first compound 0.6325 µM): 0.964
relative viability (NCI-H3122; first compound 2 µM): 0.815
relative viability (NCI-H441; first compound 0.02 µM): 0.451
relative viability (NCI-H441; first compound 0.2 µM): 0.562
relative viability (NCI-H441; first compound 0.6325 µM): 1.03
relative viability (NCI-H441; first compound 2 µM): 0.831
relative viability (NCI-H596; first compound 0.02 µM): 0.98
relative viability (NCI-H596; first compound 0.2 µM): 0.999
relative viability (NCI-H596; first compound 0.6325 µM): 1.01
relative viability (NCI-H596; first compound 2 µM): 0.814
relative viability (NCI-H661; first compound 0.02 µM): 0.831
relative viability (NCI-H661; first compound 0.2 µM): 0.849
relative viability (NCI-H661; first compound 0.6325 µM): 0.837
relative viability (NCI-H661; first compound 2 µM): 0.373
relative viability (PC-14; first compound 0.02 µM): 0.941
relative viability (PC-14; first compound 0.2 µM): 0.685
relative viability (PC-14; first compound 0.6325 µM): 0.261
relative viability (PC-14; first compound 2 µM): 0.169
